According to patent US8163724B2, “Glucocorticosteroids, processes for their preparation, pharmaceutical compositions containing them and their use in therapy” (AstraZeneca AB, priority 2007, dated 2012):
Like-named read-outs stand apart in the source and are kept apart here.

Molecular target: T1, recombinant human GR (Homo sapiens, UniProt P04150)
T1 construct: purchased Panvera/Invitrogen P2812 (kit P2893)
T1 sequence (P04150 1-777): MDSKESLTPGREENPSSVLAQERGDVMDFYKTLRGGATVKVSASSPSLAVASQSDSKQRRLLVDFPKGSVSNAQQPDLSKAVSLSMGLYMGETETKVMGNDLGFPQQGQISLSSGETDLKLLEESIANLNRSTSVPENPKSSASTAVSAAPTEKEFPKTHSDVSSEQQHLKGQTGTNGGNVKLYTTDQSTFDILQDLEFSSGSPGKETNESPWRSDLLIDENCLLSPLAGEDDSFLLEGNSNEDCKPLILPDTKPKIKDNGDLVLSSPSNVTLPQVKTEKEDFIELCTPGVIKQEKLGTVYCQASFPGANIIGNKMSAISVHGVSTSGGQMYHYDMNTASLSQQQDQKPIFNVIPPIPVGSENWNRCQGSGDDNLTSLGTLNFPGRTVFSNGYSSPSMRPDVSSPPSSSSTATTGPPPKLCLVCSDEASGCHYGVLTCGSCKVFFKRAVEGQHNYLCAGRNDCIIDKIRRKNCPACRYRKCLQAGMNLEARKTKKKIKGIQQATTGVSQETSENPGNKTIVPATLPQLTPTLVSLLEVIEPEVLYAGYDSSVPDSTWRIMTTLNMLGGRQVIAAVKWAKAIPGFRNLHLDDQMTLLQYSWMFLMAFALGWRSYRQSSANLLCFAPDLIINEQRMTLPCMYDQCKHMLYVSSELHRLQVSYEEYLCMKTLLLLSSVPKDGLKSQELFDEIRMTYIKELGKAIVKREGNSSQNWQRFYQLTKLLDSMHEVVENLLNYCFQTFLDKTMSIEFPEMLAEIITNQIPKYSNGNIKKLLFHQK
Assay: Human Glucocorticoid Receptor (GR) Assay (fluorescence polarization, Panvera/Invitrogen kit)
Format: binding
Protocol: Human Glucocorticoid Receptor (GR) Assay
The assay is based on a commercial kit from Panvera/Invitrogen (Part number P2893). The assay technology is fluorescence polarization. […] The GR and Stabilizing Peptide reagents are stored at −70° C. while the GS Red is stored at −20° C. Also included in the kit are 1M DTT (Panvera, Part number P2325, stored at −20° C.) and GR Screening buffer 10× (Panvera, Part number P2814, stored at −70° C. initially but once thawed stored at room temperature). Avoid repeated freeze/thaws for all reagents. The GR Screening buffer 10× comprises 100 mM potassium phosphate, 200 mM sodium molybdate, 1 mM EDTA and 20% DMSO.
0% control was 100% DMSO and 100% control was 10 μM Dexamethasone. Background solution (8 μL; assay buffer 10×, Stabilizing Peptide, DTT and ice cold MQ water) was added to the background wells. GS Red solution (7 μL; assay buffer 10×, Stabilizing Peptide, DTT, GS Red and ice cold water) was added to all wells except background wells. GR solution (7 μL; assay buffer 10×, Stabilizing Peptide, DTT, GR and ice cold water) was added to all wells. The plate was sealed and incubated in a dark at room temperature for 2 hours.

[1] = fluorescence polarization, GS Red tracer, 2 hours at room temperature, 100% control 10 μM Dexamethasone, read-out: Inhibition of GR binding, IC50

Compound: C[C@]12Cc3cnn(-c4ccc(F)cc4)c3C=C1CC[C@@H]1[C@@H]2[C@@H](O)C[C@@]2(C)[C@H]1CC[C@]2(OC(=O)CF)C(=O)SCC#N [Example 27, (1R,3aS,3bS,10aR,10bS,1,1S,12aS)-1-{[(Cyanomethyl)thio]carbonyl}-7-(4-fluoro-phenyl)-11-hydroxy-10a,12a-dimethyl-1,2,3,3a,3b,4,5,7,10,10a,10b,11,12,12a-tetradecahydrocyclopenta[5,6]naphtho[1,2-f]indazol-1-yl fluoroacetate]
- IC50: 3 nM

Compound: C[C@]12Cc3cnn(-c4ccc(F)cc4)c3C=C1CC[C@@H]1[C@@H]2[C@@H](O)C[C@@]2(C)[C@H]1CC[C@]2(OC(=O)CF)C(=O)SCF [Example 28, (1R,3aS,3bS,10aR,10bS,11S,12aS)-1-{[(Fluoromethyl)thio]carbonyl}-7-(4-fluoro-phenyl)-11-hydroxy-10a,12a-dimethyl-1,2,3,3a,3b,4,5,7,10,10a,10b,11,12,12a-tetradecahydrocyclopenta[5,6]naphtho[1,2-f]indazol-1-yl fluoroacetate]
- IC50: 4.2 nM

Compound: CC(=O)OCC(=O)O[C@]1(C(=O)SCC#N)CC[C@H]2[C@@H]3CCC4=Cc5c(cnn5-c5ccc(F)cc5)C[C@]4(C)[C@H]3[C@@H](O)C[C@@]21C [Example 29, (1R,3aS,3bS,10aR,10bS,11S,12aS)-1-{[(Cyanomethyl)thio]carbonyl}-7-(4-fluoro-phenyl)-11-hydroxy-10a,12a-dimethyl-1,2,3,3a,3b,4,5,7,10,10a,10b,11,12,12a-tetradecahydrocyclopenta[5,6]naphtho[1,2-f]indazol-1-yl (acetyloxy)acetate]
- IC50 [1]: 5.7 nM

Compound: COCC(=O)O[C@]1(C(=O)SCC#N)CC[C@H]2[C@@H]3CCC4=Cc5c(cnn5-c5ccc(F)cc5)C[C@]4(C)[C@H]3[C@@H](O)C[C@@]21C [Example 30, (1R,3aS,3bS,10aR,10bS,11S,12aS)-1-{[(Cyanomethyl)thio]carbonyl}-7-(4-fluoro-phenyl)-11-hydroxy-10a,12a-dimethyl-1,2,3,3a,3b,4,5,7,10,10a,10b,11,12,12a-tetradecahydrocyclopenta[5,6]naphtho[1,2-f]indazol-1-yl methoxyacetate]
- IC50 [1]: 3.1 nM

Compound: COCC(=O)O[C@]1(C(=O)SCC#CCO)CC[C@H]2[C@@H]3CCC4=Cc5c(cnn5-c5ccc(F)cc5)C[C@]4(C)[C@H]3[C@@H](O)C[C@@]21C [Example 31, (1R,3aS,3bS,10aR,10bS,11S,12aS)-7-(4-Fluorophenyl)-11-hydroxy-1-{[(4-hydroxy-but-2-yn-1-yl)thio]carbonyl}-10a,12a-dimethyl-1,2,3,3a,3b,4,5,7,10,10a,10b,11,12,12a-tetradecahydrocyclopenta[5,6]naphtho[1,2-f]indazol-1-yl methoxyacetate]
- IC50 [1]: 4.5 nM

Compound: COCC(=O)O[C@]1(C(=O)SCCO)CC[C@H]2[C@@H]3CCC4=Cc5c(cnn5-c5ccc(F)cc5)C[C@]4(C)[C@H]3[C@@H](O)C[C@@]21C [Example 32, (1R,3aS,3bS,10aR,10bS,11S,12aS)-7-(4-Fluorophenyl)-11-hydroxy-1-{[(2-hydroxy-ethyl)thio]carbonyl}-10a,12a-dimethyl-1,2,3,3a,3b,4,5,7,10,10a,10b,11,12,12a-tetradecahydrocyclopenta[5,6]naphtho[1,2-f]indazol-1-yl methoxyacetate]
- IC50 [1]: 1.6 nM

Compound: COCC(=O)O[C@]1(C(=O)SCC(C)=O)CC[C@H]2[C@@H]3CCC4=Cc5c(cnn5-c5ccc(F)cc5)C[C@]4(C)[C@H]3[C@@H](O)C[C@@]21C [Example 33, (1R,3aS,3bS,10aR,10bS,11S,12aS)-7-(4-Fluorophenyl)-11-hydroxy-10a,12a-dimethyl-1-{[(2-oxopropyl)thio]carbonyl}-1,2,3,3a,3b,4,5,7,10a,10 b,11,12,12a-tetradecahydrocyclopenta[5,6]naphtho[1,2-f]indazol-1-yl methoxyacetate]
- IC50 [1]: 2.7 nM

Compound: COCC(=O)O[C@]1(C(=O)SCF)CC[C@H]2[C@@H]3CCC4=Cc5c(cnn5-c5ccc(F)cc5)C[C@]4(C)[C@H]3[C@@H](O)C[C@@]21C [Example 34, (1R,3aS,3bS,10aR,10bS,11S,12aS)-1-{[(Fluoromethyl)thio]carbonyl}-7-(4-fluoro-phenyl)-11-hydroxy-10a,12a-dimethyl-1,2,3,3a,3b,4,5,7,10,10a,10b,11,12,12a-tetradecahydrocyclopenta[5,6]naphtho[1,2-f]indazol-1-yl methoxyacetate]
- IC50 [1]: 1.7 nM

Compound: C[C@]12Cc3cnn(-c4ccc(F)cc4)c3C=C1CC[C@@H]1[C@@H]2[C@@H](O)C[C@@]2(C)[C@H]1CC[C@]2(OC(=O)C1CC1)C(=O)SCC#N [Example 35, (1R,3aS,3bS,10aR,10bS,11S,12aS)-1-{[(Cyanomethyl)thio]carbonyl}-7-(4-fluoro-Phenyl)-11-hydroxy-10a,12a-dimethyl-1,2,3,3a,3b,4,5,7,10,10a,10b,11,12,12a-tetradecahydrocyclopenta[5,6]naphtho[1,2-f]indazol-1-yl cyclopropanecarboxylate]
- IC50 [1]: 5 nM

Compound: C[C@]12Cc3cnn(-c4ccc(F)cc4)c3C=C1CC[C@@H]1[C@@H]2[C@@H](O)C[C@@]2(C)[C@H]1CC[C@]2(OC(=O)C1CC1)C(=O)SCCO [Example 36, (1R,3aS,3bS,10aR,10bS,11S,12aS)-7-(4-Fluorophenyl)-11-hydroxy-1-{[(2-hydroxy-ethyl)thio]carbonyl}-10a,12a-dimethyl-1,2,3,3a,3b,4,5,7,10,10a,10b,11,12,12a-tetradecahydrocyclopenta[5,6]naphtho[1,2-f]indazol-1-yl cyclopropanecarboxylate]
- IC50 [1]: 2.5 nM

Compound: C[C@]12Cc3cnn(-c4ccc(F)cc4)c3C=C1CC[C@@H]1[C@@H]2[C@@H](O)C[C@@]2(C)[C@H]1CC[C@]2(OC(=O)C1CC1)C(=O)SCC#CCO [Example 37, (1R,3aS,3bS,10aR,10bS,11S,12aS)-7-(4-Fluorophenyl)-11-hydroxy-{[(4-hydroxybut-2-yn-1-yl)thio]carbonyl}-10a,12a-dimethyl-1,2,3,3a,3b,4,5,7,10,11a,10b,11,12,12a-tetradecahydrocyclopenta[5,6]naphtho[1,2-f]indazol-1-yl cyclopropanecarboxylate]
- IC50 [1]: 5.7 nM

Compound: C[C@]12Cc3cnn(-c4ccc(F)cc4)c3C=C1CC[C@@H]1[C@@H]2[C@@H](O)C[C@@]2(C)[C@H]1CC[C@]2(OC(=O)C1CC1)C(=O)SCF [Example 38, (1R,3aS,3bS,10aR,10bS,11S,12aS)-1-{[(Fluoromethyl)thio]carbonyl}-7-(4-fluoro-phenyl)-11-hydroxy-10a,12a-dimethyl-1,2,3,3a,3b,4,5,7,10,10a,10b,11,12,12a-tetradecahydrocyclopenta[5,6]naphtho[1,2-f]indazol-1-yl cyclopropanecarboxylate]
- IC50 [1]: 5.7 nM

Compound: C[C@]12Cc3cnn(-c4ccc(F)cc4)c3C=C1CC[C@@H]1[C@@H]2[C@@H](O)C[C@@]2(C)[C@H]1CC[C@]2(OC(=O)c1nccs1)C(=O)SCC#N [Example 39, (1R,3aS,3bS,10aR,10bS,11S,12aS)-1-{[(Cyanomethyl)thio]carbonyl}-7-(4-fluorophenyl)-11-hydroxy-10a,12a-dimethyl-1,2,3,3a,3b,4,5,7,10,10a,10b,11,12,12a-tetradecahydropcyclopenta[5,6]naphtho[1,2-f]indazol-1-yl 1,3-thiazole-2-carboxylate]
- IC50 [1]: 3.3 nM
